Results reported in US10124003B2, “Therapeutic agent for FGFR inhibitor-resistant cancer” (TAIHO PHARMACEUTICAL CO., LTD., priority 2013, dated 2018).
Like-named read-outs stand apart in the source and are kept apart here.

Legend:
OCUM-2MD3 cells [1] = test: Cell growth inhibition, OCUM-2MD3 parent cells (Test Example 7); type: cell-based, human; conditions: OCUM-2MD3 parent cell
[2] = system: AZD4547 resistant OCUM-2MD3 cells; test: Cell growth inhibition, AZD4547 resistant OCUM-2MD3 cells (Test Example 7); type: cell-based, human
OCUM-2MD3 cells [3] = conditions: Homo sapiens, OCUM-2MD3, 72 h
Experimental: Human-derived gastric cancer OCUM-2MD3 cells, which overexpressed FGFR2, were subcultured daily in a Dulbecco's modified Eagle's medium (DMEM) containing 10% fetal bovine serum (FBS) at a cell density of not more than 80%. In order to initiate a test of the cell growth-inhibitory effect of the compounds, the OCUM-2MD3 cells were suspended in the above DMEM medium and seeded in a 96-well flat-bottom plate so that each well contained 3,000 cells. Then, the cells were cultured in an incubator containing 5% carbon dioxide gas at 37° C. for one day. […] The DMSO solution of the test compound was diluted with the medium used for cultivation, and the diluted solution was added to each well of the cell culture plate so that the final concentration of DMSO became 0.5%. Then, the cells were cultured in an incubator containing 5% carbon dioxide gas at 37° C. for 72 hours. The number of cells was measured at the time of the addition of the test compound and 72 hours later after culture by using a Cell Counting Kit-8 (produced by Dojindo Laboratories) according to a protocol recommended by Dojindo Laboratories. […] After completion of the reaction, the absorbance at a wavelength of 450 nm was measured by a microplate reader. […]
T: absorbance of well to which test compound was added
C: absorbance of well to which test compound was not added
C0: absorbance of well measured before addition of compound

[4] = molecular target: purified recombinant human FGFR2 protein (Homo sapiens (Human), UniProt P21802); test: Inhibitory effect on FGFR2 kinase activity (Test Example 1); type: biochemical; conditions: ATP 75 μM
purified recombinant human FGFR2 protein, sequence (P21802 22-821): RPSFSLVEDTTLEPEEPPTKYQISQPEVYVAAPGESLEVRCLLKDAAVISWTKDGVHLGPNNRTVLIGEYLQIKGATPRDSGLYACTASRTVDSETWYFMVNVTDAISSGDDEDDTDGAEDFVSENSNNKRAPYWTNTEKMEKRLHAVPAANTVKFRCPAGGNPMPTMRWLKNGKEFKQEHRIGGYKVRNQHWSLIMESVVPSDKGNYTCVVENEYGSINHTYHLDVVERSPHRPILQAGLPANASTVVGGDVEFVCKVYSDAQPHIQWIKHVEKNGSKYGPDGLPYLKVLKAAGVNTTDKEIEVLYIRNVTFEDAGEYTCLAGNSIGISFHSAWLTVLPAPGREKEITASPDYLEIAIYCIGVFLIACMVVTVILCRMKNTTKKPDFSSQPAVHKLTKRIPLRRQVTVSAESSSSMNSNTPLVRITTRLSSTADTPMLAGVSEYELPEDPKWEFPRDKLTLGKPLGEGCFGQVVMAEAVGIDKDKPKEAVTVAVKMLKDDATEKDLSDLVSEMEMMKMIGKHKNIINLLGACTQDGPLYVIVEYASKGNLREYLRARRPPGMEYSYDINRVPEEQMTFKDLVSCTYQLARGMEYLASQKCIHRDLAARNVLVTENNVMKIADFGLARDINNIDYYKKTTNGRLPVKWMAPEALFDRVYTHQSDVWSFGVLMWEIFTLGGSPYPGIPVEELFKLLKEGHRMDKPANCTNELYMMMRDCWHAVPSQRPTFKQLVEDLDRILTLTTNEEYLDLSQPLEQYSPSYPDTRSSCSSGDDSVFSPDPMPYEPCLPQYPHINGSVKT
Experimental: EDTA (final concentration: 30 mM) diluted with a separation buffer (Caliper Life Sciences, Inc.) was added thereto to terminate the kinase reaction. […] The level of phosphorylation was determined from the quantitative ratio.

What does the source list for `COc1cc(CCc2cc(NC(=O)c3ccc(N4CC(C)NC(C)C4)cc3)n[nH]2)cc(OC)c1` (centres unmarked) [AZD4547]?
IC50 (OCUM-2MD3 cells [1]): 6.1 nM; IC50 ([2]; read-out: Cell growth inhibition, IC50 (nM) AZD4547 resistant cells, AZD4547 resistant OCUM-2MD3 cells, range in brackets): 159 nM

With `CCN1CCN(c2ccc(Nc3cc(N(C)C(=O)Nc4c(Cl)c(OC)cc(OC)c4Cl)ncn3)cc2)CC1` [BGJ398] as the molecule, how does the IC50 (OCUM-2MD3 cells [1]; Homo sapiens) read?
Its IC50 is 7.6 nM.

And the IC50 ([2]; Homo sapiens, OCUM-2MD3, read-out: Cell growth inhibition, IC50 (nM) AZD4547 resistant cells)?
Its IC50 is 55.6 nM.

With `CCOc1cc(C#Cc2nn(C3CN(C(=O)/C=C/CN(C)C)C3)c3ncnc(N)c23)cc(OCC)c1` [Ex. Compound 25, 1-(3-(4-amino-3-((3,5-diethoxyphenyl)ethynyl)-1H-pyrazolo[3,4-d]pyrimidin-1-yl)azetidin-1-yl)-4-(dimethylamino)but-2-en-1-one] as the molecule, how does the GI50 (OCUM-2MD3 cells [3]) read?
Its GI50 is 13 nM.

What does the source list for `C=CC(=O)N1C[C@@H](n2cc(C#Cc3cc(OC)cc(OC)c3)c3c(N)ncnc32)C[C@H]1C(=O)OC` [Ex. Compound 66, (2S,4S)-methyl 1-acryloyl-4-(4-amino-5-((3,5-dimethoxyphenyl)ethynyl)-7H-pyrrolo[2,3-d]pyrimidin-7-yl)pyrrolidine-2-carboxylate]?
IC50 [4]: < 0.3 nM; GI50 (OCUM-2MD3 cells [3]): < 4.6 nM

With `CC(C)c1cc(C#Cc2nn([C@H]3CCN(C(=O)/C=C/CN(C)C)C3)c3ncnc(N)c23)cc(C(C)C)c1` [Ref. Ex. Compound 4, (S)-1-(3-(4-amino-3-((3,5-diisopropylphenyl)ethynyl)-1H-pyrazolo[3,4-d]pyrimidin-1-yl)pyrrolidin-1-yl)-4-(dimethylamino)but-2-en-1-one] as the molecule, how does the IC50 [4] read?
The IC50 was over 10000 nM.
